Test results published in ChEMBL document CHEMBL1201862, “PubChem BioAssay data set” (2004).
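Test compounds were applied to cells in 96-well plates for 48 hours at 5 doses. At the GI50, growth is halved.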 Calls of active or inactive are those of the source. No stated cut-off is given here; in the data, active = GI50 up to about 1.1 µM and inactive = higher.

Legend:
Assay in all cases: DTP human tumour cell line panel, 48 h
786-0 = tested on: 786-0
ACHN = tested on: ACHN
DU-145 = tested on: DU-145
EKVX = tested on: EKVX
HCC 2998 = tested on: HCC 2998
HCT-116 = tested on: HCT-116
HCT-15 = tested on: HCT-15
KM12 = tested on: KM12
MDA-MB-435 = tested on: MDA-MB-435
MOLT-4 = tested on: MOLT-4
NCI/ADR-RES = tested on: NCI/ADR-RES
OVCAR-5 = tested on: OVCAR-5
OVCAR-8 = tested on: OVCAR-8
RXF 393 = tested on: RXF 393
SF-268 = tested on: SF-268
SK-MEL-28 = tested on: SK-MEL-28
SN12C = tested on: SN12C
T47D = tested on: T47D
U-251 = tested on: U-251
UACC-257 = tested on: UACC-257

CNc1c2cccc(C)c2nc2c(C(=O)NCCN(C)C)cccc12
GI50 (786-0): 0.104 µM (active)
GI50 (ACHN): < 0.024 µM (active)
GI50 (DU-145): 0.0946 µM (active)
GI50 (EKVX): 0.151 µM (active)
GI50 (HCC 2998): 0.0322 µM (active)
GI50 (HCT-116): 0.0377 µM (active)
GI50 (HCT-15): 0.115 µM
GI50 (KM12): 0.127 µM (active)
GI50 (MDA-MB-435): 0.152 µM (active)
GI50 (MOLT-4): < 0.0208 µM (active)
GI50 (NCI/ADR-RES): 0.265 µM (active)
GI50 (OVCAR-5): 0.162 µM (active)
GI50 (OVCAR-8): 0.07 µM (active)
GI50 (RXF 393): 0.0716 µM (active)
GI50 (SF-268): 0.0445 µM (active)
GI50 (SK-MEL-28): 0.45 µM (active)
GI50 (SN12C): 0.0282 µM (active)
GI50 (T47D): 0.162 µM (active)
GI50 (U-251): 0.149 µM (active)
GI50 (UACC-257): 0.211 µM (active)

COC(=O)c1ccc(NC(=O)O/N=C(\Cl)C(C)C)cc1
GI50 (786-0): 2.03 µM (inactive)
GI50 (ACHN): 1.74 µM (inactive)
GI50 (DU-145): 18.5 µM (inactive)
GI50 (EKVX): 3.22 µM (inactive)
GI50 (HCC 2998): 14.7 µM (inactive)
GI50 (HCT-116): 5.61 µM (inactive)
GI50 (HCT-15): 1.83 µM
GI50 (KM12): 15.1 µM (inactive)
GI50 (MDA-MB-435): 11.3 µM (inactive)
GI50 (MOLT-4): 1.79 µM (inactive)
GI50 (NCI/ADR-RES): 5.71 µM (inactive)
GI50 (OVCAR-5): 17.1 µM (inactive)
GI50 (OVCAR-8): 14 µM (inactive)
GI50 (RXF 393): 6.21 µM (inactive)
GI50 (SF-268): 26.2 µM (inactive)
GI50 (SK-MEL-28): 4.84 µM (inactive)
GI50 (SN12C): 6.19 µM (inactive)
GI50 (T47D): 2 µM (inactive)
GI50 (U-251): 16.6 µM (inactive)
GI50 (UACC-257): 15.2 µM (inactive)

Nc1nc(N)c2ncn(-c3ccc(Cl)c(Cl)c3)c2n1
GI50 (786-0): 14.1 µM (inactive)
GI50 (ACHN): 42.2 µM (inactive)
GI50 (DU-145): 18.5 µM (inactive)
GI50 (EKVX): 25.5 µM (inactive)
GI50 (HCC 2998): 27.4 µM (inactive)
GI50 (HCT-116): 16.1 µM (inactive)
GI50 (HCT-15): 26 µM
GI50 (KM12): 25.4 µM (inactive)
GI50 (MDA-MB-435): 33.7 µM (inactive)
GI50 (MOLT-4): 12.2 µM (inactive)
GI50 (NCI/ADR-RES): 37.7 µM (inactive)
GI50 (OVCAR-5): 42.7 µM (inactive)
GI50 (OVCAR-8): 24.5 µM (inactive)
GI50 (RXF 393): 12.7 µM (inactive)
GI50 (SF-268): 31.7 µM (inactive)
GI50 (SK-MEL-28): 60.5 µM (inactive)
GI50 (SN12C): 15.8 µM (inactive)
GI50 (T47D): 42.1 µM (inactive)
GI50 (U-251): 25.9 µM (inactive)
GI50 (UACC-257): 27.4 µM (inactive)

O=C(NC/C(Cl)=C/Cl)Nc1c2ccccc2nc2ccccc12
GI50 (786-0): 33.3 µM (inactive)
GI50 (ACHN): 80.5 µM (inactive)
GI50 (DU-145): 54.5 µM (inactive)
GI50 (EKVX): > 100 µM (inactive)
GI50 (HCC 2998): 86.3 µM (inactive)
GI50 (HCT-116): 24.3 µM (inactive)
GI50 (HCT-15): 59 µM
GI50 (KM12): > 100 µM (inactive)
GI50 (MDA-MB-435): > 100 µM (inactive)
GI50 (MOLT-4): 29.3 µM (inactive)
GI50 (NCI/ADR-RES): 52 µM (inactive)
GI50 (OVCAR-5): 99.3 µM (inactive)
GI50 (OVCAR-8): 56.4 µM (inactive)
GI50 (RXF 393): > 100 µM (inactive)
GI50 (SF-268): > 100 µM (inactive)
GI50 (SK-MEL-28): > 100 µM (inactive)
GI50 (SN12C): 69.7 µM (inactive)
GI50 (T47D): 71.1 µM (inactive)
GI50 (U-251): 70.8 µM (inactive)
GI50 (UACC-257): 78.9 µM (inactive)

C[C@H](CCC(=O)NCCS(=O)(=O)O)[C@H]1CC[C@H]2[C@@H]3CC[C@@H]4C[C@H](O)CC[C@]4(C)[C@H]3CC[C@]12C
GI50 (786-0): > 100 µM (inactive)
GI50 (ACHN): > 100 µM (inactive)
GI50 (DU-145): > 100 µM (inactive)
GI50 (EKVX): > 100 µM (inactive)
GI50 (HCC 2998): > 100 µM (inactive)
GI50 (HCT-116): > 100 µM (inactive)
GI50 (HCT-15): > 100 µM
GI50 (KM12): > 100 µM (inactive)
GI50 (MDA-MB-435): > 100 µM (inactive)
GI50 (MOLT-4): 91 µM (inactive)
GI50 (NCI/ADR-RES): > 100 µM (inactive)
GI50 (OVCAR-5): > 100 µM (inactive)
GI50 (OVCAR-8): > 100 µM (inactive)
GI50 (RXF 393): > 100 µM (inactive)
GI50 (SF-268): > 100 µM (inactive)
GI50 (SK-MEL-28): > 100 µM (inactive)
GI50 (SN12C): > 100 µM (inactive)
GI50 (T47D): > 100 µM (inactive)
GI50 (U-251): > 100 µM (inactive)
GI50 (UACC-257): > 100 µM (inactive)

O=P(O)(O)OP(=O)(O)O
GI50 (786-0): > 100 µM (inactive)
GI50 (ACHN): > 100 µM (inactive)
GI50 (DU-145): > 100 µM (inactive)
GI50 (EKVX): > 100 µM (inactive)
GI50 (HCC 2998): > 100 µM (inactive)
GI50 (HCT-116): > 100 µM (inactive)
GI50 (HCT-15): > 100 µM
GI50 (KM12): > 100 µM (inactive)
GI50 (MDA-MB-435): > 100 µM (inactive)
GI50 (MOLT-4): > 100 µM (inactive)
GI50 (NCI/ADR-RES): > 100 µM (inactive)
GI50 (OVCAR-5): > 100 µM (inactive)
GI50 (OVCAR-8): > 100 µM (inactive)
GI50 (RXF 393): > 100 µM (inactive)
GI50 (SF-268): > 100 µM (inactive)
GI50 (SK-MEL-28): > 100 µM (inactive)
GI50 (SN12C): > 100 µM (inactive)
GI50 (T47D): > 100 µM (inactive)
GI50 (U-251): > 100 µM (inactive)
GI50 (UACC-257): > 100 µM (inactive)
